Results as given in US10918743B2, “Contrast medium formulation and related preparation method” (GUERBET, priority 2013, dated 2021).

Test: Thermodynamic equilibrium constant for the complexation of Gd3+
Type: physicochemical
Conditions: complexation of Gd^3+ by the ligand
Text: In the particular case where M represents a gadolinium ion, for the following chemical equilibria: [drawing 3] and DOTA+Gd ? [DOTA-Gd] (equation 2) the thermodynamic equilibrium constant of equation 1 (i.e. for the complexation of Gd^3+ by the ligand of formula I') is 10^14.9 (i.e. log ([…])=14.9), while the thermodynamic equilibrium constant of equation 2 (i.e. for the complexation of Gd^3+ by DOTA) is 10^25.6 (i.e. log ([…])=25.6). Thus, the formulations according to the invention go against the teachings of document U.S. Pat. No. 5,876,695 in particular, since the complex of DOTA with the gadolinium ion is more thermodynamically stable than the active complex.

log (Ktherm), thermodynamic equilibrium constant	SMILES
25.6	O=C(O)CN1CCN(CC(=O)O)CCN(CC(=O)O)CCN(CC(=O)O)CC1 [DOTA, 1,4,7,10-tetraazacyclododecane-1,4,7,10-tetraacetic acid]
14.9	O=C(CCC(C(=O)O)N1CCN(C(CCC(=O)NCC(O)CO)C(=O)O)Cc2cccc(n2)CN(C(CCC(=O)NCC(O)CO)C(=O)O)CC1)NCC(O)CO (centres unmarked) [ligand of formula I′]
